The results in this text go back to patent publication US20230295157A1, “3-(1H-IMIDAZOL-2-YL)-2,3,8,8A-TETRAHYDROINDOLIZIN-5(1H)-ONE DERIVATIVES USEFUL AS FACTOR XIA INHIBITORS” (JANSSEN PHARMACEUTICA NV, priority 2020, published 2023).

Usually IC50 stands for the concentration that inhibits the measured activity by half.

For one test, the target named is Factor XIa (Homo sapiens (Human), UniProt P03951). The test can be described thus: Factor XIa inhibition assay (FLINT) utilizing a fluorophore-quencher pair peptide substrate. Type of test: biochemical. Particulars: 30 min preincubation, kinetic reads over 30 min, read-out: FXIa Kin Inh IC50. The source says: Biological Example 1: Factor XIa Inhibition Assay Utilizing a Fluorophore-Quencher Pair Peptide Substrate
Sequence of Factor XIa (P03951 388-625): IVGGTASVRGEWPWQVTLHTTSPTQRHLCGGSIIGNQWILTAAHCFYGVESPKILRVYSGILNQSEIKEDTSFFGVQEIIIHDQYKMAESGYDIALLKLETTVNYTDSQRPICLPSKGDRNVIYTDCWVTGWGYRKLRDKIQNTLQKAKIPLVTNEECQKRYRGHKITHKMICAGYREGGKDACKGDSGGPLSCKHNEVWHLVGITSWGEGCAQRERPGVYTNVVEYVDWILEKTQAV
Sequence of Factor XIa (P03951 19-387 partner): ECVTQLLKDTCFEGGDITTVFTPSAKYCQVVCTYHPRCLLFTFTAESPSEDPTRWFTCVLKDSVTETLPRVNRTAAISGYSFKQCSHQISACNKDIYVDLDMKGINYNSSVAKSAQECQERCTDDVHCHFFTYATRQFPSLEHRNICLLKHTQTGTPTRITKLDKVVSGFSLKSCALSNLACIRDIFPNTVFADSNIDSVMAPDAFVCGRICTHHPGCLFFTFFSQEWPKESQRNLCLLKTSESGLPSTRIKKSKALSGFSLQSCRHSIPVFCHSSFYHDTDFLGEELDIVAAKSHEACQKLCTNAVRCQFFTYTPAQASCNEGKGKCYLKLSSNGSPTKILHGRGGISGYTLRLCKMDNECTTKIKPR
A fluorescence intensity (FLINT) based assay was used to monitor inhibition of Factor XIa. The peptide substrate, 5Fam-[…]-K5Tamra (purchased from New England Peptide) was chosen based on the FXI sequence. Conversion of zymogen […]. The custom peptide used in this assay was based on the Arg146 cleavage site of FXI. The peptide substrate was designed with a fluorophore-quencher pair, where the fluorescence is quenched until FXIa cleaves the 8-mer peptide after the Arg residue.
The Factor XIa FLINT assay was used with the following 5Fam-[…]-K5Tamra assay buffer: 50 mM Tris, pH 7.5, 100 mM NaCl, 5 mM CaCl2), 0.1 mg/mL BSA, 0.03% CHAPS. Assay buffer was prepared by mixing all ingredients fresh. 5Fam-[…]-K5Tamra peptide substrate was first prepared at 10 mM in 100% DMSO, then diluted to 3 mM in 100% DMSO. Assay buffer was then added directly to the 3 mM stock of substrate to prepare the 30 μM 2× working concentration (15 μM final concentration). The 2×Factor XIa stock solution was prepared by diluting 6.562 μM stock in 1×assay buffer for a 200 μM working stock solution (100 μM final concentration).
Test compound(s) were run in an 11-point, 3-fold serial dilution with a final top compound concentration of 100 nM. Final DMSO in assay was 2%. FXIa was preincubated with compound for 30-minutes and then substrate was added to initiate the reaction. The assay was run with kinetic (KIN) reads at 5 min intervals over 30 minutes. The time course was linear using 100 μM FXIa greater than 30 minutes. More specifically, the assay was run as follows: • 100 nL of 0.01 mM test compound was dispensed into black 384 well non-binding Greiner BioOne 784900 plate for 0.1 μM final concentration; • 5 μL of 1×assay buffer was dispensed to column 24 (low control) and 5 μL 2×Factor XIa solution was dispensed to columns 1-23 (column 23 high control); • the plate was centrifuged with a “cover” plate at 500 rpm for 1 min • the plate was pre-incubated for 30 minutes at room temperature with plate covered; • 5 μL of 2×5Fam-[…]-K5Tamra peptide substrate was dispensed into the entire plate, columns 1-24; • the plate was centrifuged with a “cover” plate at 500 rpm for 1 min; • the plate was read monitoring fluorescence intensity on the BMG PHERAStar at room temperature, using fluorescence module 485 nm/520 nm.
(§1) Percent inhibition (IC50) curves were generated per compound tested, and data was analyzed using a 4-parameter logistic fit using GeneData Screener. The relative fluorescence unit (RFU) values were normalized to percent inhibition using the following equation:
% inhibition=((HC-LC)−(compound−LC)/(HC-LC))*100
where LC—low control=mean signal of no Factor XIa or 100% inhibition of Factor XIa; HC—high control=mean signal of Factor XIa+5Fam-[…]-K5Tamra peptide substrate with DMSO only.
(§2) An 11-point dose response curve for the test compound(s) was generated using GENDATA to determine IC50 value based on the following equation:
Y=Bottom+(Top-Bottom)/(1+10^((logIC50-X)*HillSlope))
where Y is the % inhibition in the presence of X inhibitor concentration, Top=high control=mean signal of Factor XIa+5Fam-[…] K5Tamra peptide substrate with DMSO only; Bottom=low control−mean signal of no Factor XIa or 100% inhibition of Factor XIa; HillSlope—Hill coefficient; and IC50=concentration of compound with 50% inhibition in relation to top/high control.
Representative compounds of the present invention were tested according to the procedure described in Biological Example 1 and Biological Example 2 above, with results as listed in Table 3, below.

The target of another test is human plasma kallikrein (Homo sapiens (Human), UniProt P03952). Briefly: Kallikrein inhibition assay (FLINT) utilizing a quenched AMC peptide substrate. Type of test: biochemical. Particulars: 30 min preincubation, kinetic reads over 30 min, Z-Gly-Pro-Arg-AMC substrate 50 μM; read-out: Kallikrein Kin Inh IC50. Here is the method: Biological Example 2: Kallikrein Inhibition Assay Utilizing a Quenched AMC Peptide Substrate A fluorescence intensity (FLINT) based assay was used to monitor inhibition of human plasma kallikrein.
Sequence of human plasma kallikrein (P03952 391-638): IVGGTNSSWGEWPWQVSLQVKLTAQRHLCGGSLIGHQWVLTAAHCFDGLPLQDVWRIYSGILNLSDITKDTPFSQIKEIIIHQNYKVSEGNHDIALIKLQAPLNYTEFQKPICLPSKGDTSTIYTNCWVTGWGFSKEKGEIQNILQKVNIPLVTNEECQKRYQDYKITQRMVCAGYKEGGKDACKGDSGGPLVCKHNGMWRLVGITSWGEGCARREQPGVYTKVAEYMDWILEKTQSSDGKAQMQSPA
Sequence of human plasma kallikrein (P03952 20-390 partner): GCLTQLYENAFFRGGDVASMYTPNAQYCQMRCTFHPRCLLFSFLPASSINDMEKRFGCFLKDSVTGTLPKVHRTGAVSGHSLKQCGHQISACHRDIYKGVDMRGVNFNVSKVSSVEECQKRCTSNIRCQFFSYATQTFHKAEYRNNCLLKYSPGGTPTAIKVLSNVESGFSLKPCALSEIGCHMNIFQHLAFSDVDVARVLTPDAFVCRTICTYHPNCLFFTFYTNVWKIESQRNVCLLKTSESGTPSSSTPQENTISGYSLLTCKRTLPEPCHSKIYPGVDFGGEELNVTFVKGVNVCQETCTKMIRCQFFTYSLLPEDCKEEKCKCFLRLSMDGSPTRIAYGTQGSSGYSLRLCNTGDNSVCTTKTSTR
The Kallikrein FLINT assay was used with the following Z-Gly-Pro-Arg-AMC assay buffer: 50 mM Tris, pH 7.5, 100 mM NaCl, 5 mM CaCl2), 0.1 mg/mL BSA, 0.03% CHAPS. Assay buffer was prepared by mixing all ingredients fresh. 2×Z-Gly-Pro-Arg-AMC peptide substrate was prepared by diluting 10 mM stock into 1×assay buffer for a 100 μM working concentration (50 μM final concentration). The 2×kallikrein stock solution was prepared by diluting 14.76 μM stock in 1×assay buffer for a 4 nM working stock solution (2 nM final concentration).
Test compound(s) were run in an 11-point, 3-fold serial dilution with a final top compound concentration of 1 μM. Final DMSO in assay was 2%. Plasma kallikrein was pre-incubated for 30-minute with compound and then 50 μM substrate was added to initiate the reaction. The assay was run with kinetic (KIN) reads at 5 min intervals over 30 minutes. […] More specifically, the assay was run as follows: • 100 nL of 0.1 mM test compound was dispensed into black 384-well non-binding Greiner BioOne 784900 plate for 1 μM final concentration; • 5 μL of 1×assay buffer was dispensed to columns 24 (low control) and 5 μL 2×human kallikrein enzyme solution was dispensed to columns 1-23 (column 23 high control); • the plate was centrifuged with a “cover” plate at 500 rpm for 1 min • the plate was pre-incubated for 30 minutes at room temperature with plate covered; • 5 μL of 2×Z-Gly-Pro-Arg-AMC peptide substrate was dispensed into the entire plate, columns 1-24; • the plate was centrifuged with a “cover” plate at 500 rpm for 1 min; • the plate was read monitoring fluorescence intensity on the BMG PHERAStar at room temperature, using fluorescence module 340 nm/440 nm.
as §1
% inhibition=((HC-LC)−(compound-LC)\(HC-LC))*100 where LC—low control=mean signal of human kallikrein enzyme or 100% inhibition of human kallikrein enzyme; HC—high control=mean signal of Factor XIa+Z-Gly-Pro-Arg-AMC peptide substrate with DMSO only.
as §2
Y=Bottom+(Top-Bottom)/(1+10^((logIC50−X)*HillSlope)) where Y is the % inhibition in the presence of X inhibitor concentration, Top=high control=mean signal of human kallikrein enzyme+Z-Gly-Pro-Arg-AMC peptide substrate with DMSO only; Bottom=low control−mean signal of no human kallikrein enzyme or 100% inhibition of human kallikrein enzyme; HillSlope—Hill coefficient; and IC50=concentration of compound with 50% inhibition in relation to top/high control.

The mark [1] stands for this setting: 5Fam-[…]-K5Tamra substrate 15 μM.
[2] abbreviates: 5Fam-KLTRAETV-K5Tamra substrate 15 μM.

Molecules are shown by their SMILES. Read-outs that look alike come from different tables or passages of the source.

Consider `O=C1C=C(c2c(-n3cnnn3)ccc(Cl)c2F)C[C@H]2CC[C@H](c3ncc(-c4ccnc(COCP(=O)(O)O)c4F)[nH]3)N12` (relative stereo) [Example 37, (((4-(24(3R*,8aR)-7-(3-chloro-2-fluoro-6-(1H-tetrazol-1-yl)phenyl)-5-oxo-1,2,3,5,8,8a-hexahydroindolizin-3-yl)-1H-imidazol-5-yl)-3-fluoropyridin-2-yl)methoxy)methyl)phosphonic acid], for which the IC50 on Factor XIa (setting [1]) came out at 1.3 nM; on human plasma kallikrein it was 55.8 nM. In the case of `C[C@@H](O)c1nccc(-c2[nH]c([C@@H]3CC[C@@H]4CC(c5cc(Cl)ccc5-n5cnnn5)=CC(=O)N43)nc2F)c1F` (relative stereo) [Example 45, (3S,8aR)-7-(5-chloro-2-(1H-tetrazol-1-yl)phenyl)-3-(4-fluoro-5-(3-fluoro-2-((R*)-1-hydroxyethyl)pyridin-4-yl)-1H-imidazol-2-yl)-2,3,8,8a-tetrahydroindolizin-5(1H)-one], the IC50 at Factor XIa (setting [1]) turned out to be 4.4 nM; on human plasma kallikrein it was 41.3 nM. On to `C[C@H](O)c1nccc(-c2[nH]c([C@@H]3CC[C@@H]4CC(c5cc(Cl)ccc5-n5cnnn5)=CC(=O)N43)nc2F)c1F` (relative stereo) [Example 46, (3S,8aR)-7-(5-chloro-2-(1H-tetrazol-1-yl)phenyl)-3-(4-fluoro-5-(3-fluoro-2-((S*)-1-hydroxyethyl)pyridin-4-yl)-1H-imidazol-2-yl)-2,3,8,8a-tetrahydroindolizin-5(1H)-one], for which the IC50 on Factor XIa (setting [1]) was determined as 5.4 nM; on human plasma kallikrein, 35.5 nM. The like results for `[2H][C@]12CC[C@@H](c3ncc(-c4ccnc(CO)c4F)[nH]3)N1C(=O)C=C(c1c(-n3cnnn3)ccc(Cl)c1F)C2` (relative stereo) [Example 47, (3S,8aR*)-7-(3-Chloro-2-fluoro-6-(1H-tetrazol-1-yl)phenyl)-3-(5-(3-fluoro-2-(hydroxymethyl)pyridin-4-yl)-1H-imidazol-2-yl)-2,3,8,8a-tetrahydroindolizin-5(1H)-one-8a-d] were, in that order, 5.7 nM and 42.6 nM. Take `[2H][C@@]12CC[C@@H](c3ncc(-c4ccnc(CO)c4F)[nH]3)N1C(=O)C=C(c1c(-n3cnnn3)ccc(Cl)c1F)C2` (relative stereo) [Example 48, (3S*,8aS)-7-(3-chloro-2-fluoro-6-(1H-tetrazol-1-yl)phenyl)-3-(5-(3-fluoro-2-(hydroxymethyl)pyridin-4-yl)-1H-imidazol-2-yl)-2,3,8,8a-tetrahydroindolizin-5(1H)-one-8a-d]: the IC50 at Factor XIa (setting [1]) is 22.5 nM; at human plasma kallikrein, 72.4 nM. The like results for `O=C1C=C(c2cc(Cl)ccc2-n2cc(C(F)(F)F)nn2)C[C@H]2CC[C@@H](c3ncc(-c4ccc5[nH]c(=O)cnc5c4F)[nH]3)N12` (relative stereo) [Example 59, 6-(2-((3S*,8aR*)-7-(5-chloro-2-(4-(trifluoromethyl)-1H-1,2,3-triazol-1-yl)phenyl)-5-oxo-1,2,3,5,8,8a-hexahydroindolizin-3-yl)-1H-imidazol-5-yl)-5-fluoroquinoxalin-2(1H)-one] were, in that order, 3.1 nM and 12 nM. Take `O=C1C=C(c2cc(Cl)ccc2-n2cc(C(F)(F)F)nn2)C[C@H]2CC[C@@H](c3ncc(-c4ccnc(CO)c4F)[nH]3)N12` (relative stereo) [Example 64, (3S,8aR*)-7-(5-chloro-2-(4-(trifluoromethyl)-1H-1,2,3-triazol-1-yl)phenyl)-3-(5-(3-fluoro-2-(hydroxymethyl)pyridin-4-yl)-1H-imidazol-2-yl)-2 3,8,8a-tetrahydroindolizin-1H-one]: the IC50 came to 11.5 nM at Factor XIa (setting [1]) and 156 nM on human plasma kallikrein. Take `O=C1C=C(c2c(-n3cnnn3)ccc(Cl)c2F)CC2CC[C@@H](c3nc(F)c(-c4ccnc(N[C@H]5CCOC5)c4F)[nH]3)N12` (relative stereo) [Example 76, (3S*)-7-(3-chloro-2-fluoro-6-(1H-tetrazol-1-yl)phenyl)-3-(4-fluoro-5-(3-fluoro-2-(((S)-tetrahydrofuran-3-yl)amino)pyridin-4-yl)-1H-imidazol-2-yl)-2,3,8,8a-tetrahydroindolizin-5(1H)-one]: the figures for the IC50 on Factor XIa (setting [1]) and at human plasma kallikrein were 0.7 nM and 1.9 nM, respectively. On to `COc1ccc(NC(=O)C2CC2)c(-c2c[nH]c([C@@H]3CC[C@@H]4CC(c5c(-n6cnnn6)ccc(Cl)c5F)=CC(=O)N43)n2)c1` [Example 257, N-[2-[2-[(3S,8aR)-7-[3-Chloro-2-fluoro-6-(tetrazol-1-yl)phenyl]-5-oxo-2,3,8,8a-tetrahydro-1H-indolizin-3-yl]-1H-imidazol-4-yl]-4-methoxy-phenyl]cyclopropanecarboxamide], for which, on Factor XIa (setting [2]), the IC50 was found to be 0.5 nM. In the case of `COc1ccc(NC(=O)C2CC2)c(-c2c[nH]c([C@@H]3CC[C@H]4CC(c5c(-n6cnnn6)ccc(Cl)c5F)=CC(=O)N43)n2)c1` [Example 271, N-(2-(2-((3S,8aS)-7-(3-Chloro-2-fluoro-6-(1H-tetrazol-1-yl)phenyl)-5-oxo-1,2,3,5,8,8a-hexahydroindolizin-3-yl)-1H-imidazol-4-yl)-4-methoxyphenyl)cyclopropanecarboxamide], the IC50 at Factor XIa (setting [2]) was 0.8 nM. On to `COc1ccc(NC(=O)C2CC2)c(-c2c[nH]c([C@@H]3CCC4CC(c5c(-n6cnnn6)ccc(Cl)c5F)=CC(=O)N43)n2)c1` (stereo partly drawn) [Example 279, N-(2-(2-((3S)-7-(3-Chloro-2-fluoro-6-(1H-tetrazol-1-yl)phenyl)-5-oxo-1,2,3,5,8,8a-hexahydroindolizin-3-yl)-1H-imidazol-4-yl)-4-methoxyphenyl)cyclopropanecarboxamide], for which, on Factor XIa (setting [2]), the IC50 turned out to be 0.9 nM.
